According to US20210030703A1, “USE OF CALORIC RESTRICTION MIMETICS FOR POTENTIATING CHEMO-IMMUNOTHERAPY FOR THE TREATMENT OF CANCERS” (INSERM (INSTITUT NATIONAL DE LA SANTÉ ET DE LA RECHERCHE …, priority 2018, published 2021):

Test system: PD-1
Assay: PD-1 expression in tumors
Assay type: in vivo, C57B1/6 mice
Settings: MTX alone or together with fasting or CRMs; data not shown
Experimental: 3 or 11 days post-chemotherapy (d3 or d11), mice were euthanized and the tumors were withdrawn and placed in gentleMACS C tubes (ref 130-096-334 from Miltenyi Biotec™) previously filled with 1 ml of DMEM or RPMI medium, and immediately put on ice. After a mechanical (with scissors) and chemical digestion (thanks to the tumor dissociation kit and the gentleMACS Octo Dissociator, ref 130-096-730 and 130-096-427, respectively, from Miltenyi Biotec™), tumors were filtered (using MACS smartstrainers […], ref 130-110-916 from Miltenyi Biotec™), washed twice with PBS and distributed in a 96-wells round bottom plate.
Then, cells were stained with a live dead dye (ref L34959 from ThermoFisher Scientific™) and an FCblock receptor targeting antibody. […] Finally, cells were resuspended in FACS buffer and analyzed on a flow cytometer BD LSR II.

O=C1c2c(O)ccc(O)c2C(=O)c2c(NCCNCCO)ccc(NCCNCCO)c21 [MTX, mitoxantrone] was tested. Which “Expression of PD-1” value did it give?
The value was “No changes”.
